Measurements from patent EP4635500A1, “THERAPEUTIC AGENT FOR BACTERIAL INFECTION” (Sumitomo Pharma Co., Ltd., priority 2022, dated 2024).
Converted amounts (≈) assume the structure as drawn. Where two headings read alike, the source gives them in different places.

Legend:
[1] = system: P. aeruginosa; experiment: MIC, broth microdilution, CDC/FDA Antibiotic Resistance Isolate Bank (Example 7, Tables 10, 15); format: cell-based; conditions: Pseudomonas aeruginosa, read-out: MIC
[2] = system: A. baumannii; experiment: MIC, broth microdilution, CDC/FDA Antibiotic Resistance Isolate Bank (Example 7, Tables 9, 13, 14); format: cell-based, Acinetobacter baumannii; conditions: for MIC: read-out: MIC
[3] = system: 53 CRE and CPE strains; experiment: MICrange, MIC50, MIC80, MIC90 for 53 bacterial isolates (Example 5, Table 5); format: cell-based; conditions: 53 bacterial isolates
[4] = MIC distribution, metallo-β-lactamase-producing A. baumannii, inhibitor µg/mL in parentheses

SMILES: NCC[C@H](O)C(=O)N[C@@H]1C[C@H](N)[C@@H](O[C@H]2O[C@H](CN)[C@@H](O)[C@H](O)[C@H]2O)[C@H](O)[C@H]1O[C@H]1O[C@H](CO)[C@@H](O)[C@H](N)[C@H]1O [Amikacin, amikacin]
- MIC ([1]; P. aeruginosa KUB No. 5798, AR Bank # 455): 0.25 µg/mL (≈ 0.427 µM)
- MIC ([1]; P. aeruginosa KUB No. 5799, AR Bank # 456): 8 µg/mL (≈ 13.7 µM)
- MIC ([1]; P. aeruginosa KUB No. 5800, AR Bank # 457): 2 µg/mL (≈ 3.42 µM)
- MIC ([1]; P. aeruginosa KUB No. 5801, AR Bank # 458): 16 µg/mL (≈ 27.3 µM)
- MIC ([1]; P. aeruginosa KUB No. 5802, AR Bank # 459): 8 µg/mL (≈ 13.7 µM)
- MIC ([1]; P. aeruginosa KUB No. 5804, AR Bank # 862): 4 µg/mL (≈ 6.83 µM)
- MIC ([1]; P. aeruginosa KUB No. 5805, AR Bank # 863): > 64 µg/mL
- MIC ([1]; P. aeruginosa KUB No. 5806, AR Bank # 864): 0.5 µg/mL (≈ 0.854 µM)
- MIC ([1]; P. aeruginosa KUB No. 5813, AR Bank # 508): 0.064 µg/mL (≈ 0.109 µM)
- MIC ([1]; P. aeruginosa KUB No. 5814, AR Bank # 509): > 0.064 µg/mL
- MIC ([1]; P. aeruginosa KUB No. 5815, AR Bank # 510): 0.008 µg/mL (≈ 0.0137 µM)
- MIC ([1]; P. aeruginosa KUB No. 5816, AR Bank # 511): 0.004 µg/mL (≈ 0.00683 µM)
- MIC ([1]; P. aeruginosa KUB No. 5817, AR Bank # 512): 0.004 µg/mL (≈ 0.00683 µM)
- MIC ([1]; P. aeruginosa KUB No. 5818, AR Bank # 513): 0.032 µg/mL (≈ 0.0546 µM)
- MIC ([1]; P. aeruginosa KUB No. 5819, AR Bank # 514): 0.004 µg/mL (≈ 0.00683 µM)
- MIC ([1]; P. aeruginosa KUB No. 5820, AR Bank # 515): 0.008 µg/mL (≈ 0.0137 µM)
- MIC ([1]; P. aeruginosa KUB No. 5821, AR Bank # 516): 0.002 µg/mL (≈ 0.00342 µM)
- MIC ([1]; P. aeruginosa KUB No. 5823, AR Bank # 518): 0.016 µg/mL (≈ 0.0273 µM)
- MIC ([1]; P. aeruginosa KUB No. 5831, AR Bank # 526): 0.004 µg/mL (≈ 0.00683 µM)
- MIC ([1]; P. aeruginosa KUB No. 5832, AR Bank # 527): 0.0005 µg/mL (≈ 0.000854 µM)
- MIC ([1]; P. aeruginosa KUB No. 5833, AR Bank # 528): 0.008 µg/mL (≈ 0.0137 µM)
- MIC ([1]; P. aeruginosa KUB No. 5834, AR Bank # 529): 0.004 µg/mL (≈ 0.00683 µM)
- MIC ([2]; Acinetobacter baumannii, A. baumannii KUB No. 5567, AR Bank #70, OXA-58, OXA-100): 1 µg/mL (≈ 1.71 µM)
- MIC ([2]; Acinetobacter baumannii, A. baumannii KUB No. 5575, AR Bank #78, OXA-71): 32 µg/mL (≈ 54.6 µM)
- MIC ([2]; Acinetobacter baumannii, A. baumannii KUB No. 5580, AR Bank #83, OXA-23, OXA-69, NDM-1): > 64 µg/mL
- MIC ([2]; Acinetobacter baumannii, A. baumannii KUB No. 5585, AR Bank #88, OXA-64, NDM-1): 32 µg/mL (≈ 54.6 µM)
- MIC ([2]; Acinetobacter baumannii, A. baumannii KUB No. 5598, AR Bank #101, OXA-24, OXA-65): 64 µg/mL (≈ 109 µM)
- MIC ([2]; Acinetobacter baumannii, A. baumannii KUB No. 5599, AR Bank #102, OXA-66): > 64 µg/mL
- MIC ([2]; Acinetobacter baumannii, A. baumannii KUB No. 5706, AR Bank #273, OXA-23, OXA-66): > 64 µg/mL
- MIC ([2]; Acinetobacter baumannii, A. baumannii KUB No. 5707, AR Bank #274, OXA-66, OXA-72): 16 µg/mL (≈ 27.3 µM)
- MIC ([2]; Acinetobacter baumannii, A. baumannii KUB No. 5708, AR Bank #275, OXA-23, OXA-66): > 64 µg/mL
- MIC ([2]; Acinetobacter baumannii, A. baumannii KUB No. 5709, AR Bank #276, no carbapenemase genes (-)): 64 µg/mL (≈ 109 µM)
- MIC ([2]; Acinetobacter baumannii, A. baumannii KUB No. 5710, AR Bank #277, OXA-24, OXA-65): 16 µg/mL (≈ 27.3 µM)
- MIC ([2]; Acinetobacter baumannii, A. baumannii KUB No. 5711, AR Bank #278, OXA-23, OXA-66): > 64 µg/mL
- MIC ([2]; Acinetobacter baumannii, A. baumannii KUB No. 5712, AR Bank #279, OXA-23, OXA-66): > 64 µg/mL
- MIC ([2]; Acinetobacter baumannii, A. baumannii KUB No. 5713, AR Bank #280, OXA-66): 4 µg/mL (≈ 6.83 µM)
- MIC ([2]; Acinetobacter baumannii, A. baumannii KUB No. 5714, AR Bank #281, OXA-82): 2 µg/mL (≈ 3.42 µM)
- MIC ([2]; Acinetobacter baumannii, A. baumannii KUB No. 5715, AR Bank #282, OXA-23, OXA-66): > 64 µg/mL
- MIC ([2]; Acinetobacter baumannii, A. baumannii KUB No. 5716, AR Bank #283, OXA-23, OXA-66): > 64 µg/mL
- MIC ([2]; Acinetobacter baumannii, A. baumannii KUB No. 5717, AR Bank #284, OXA-24, OXA-65): 32 µg/mL (≈ 54.6 µM)
- MIC ([2]; Acinetobacter baumannii, A. baumannii KUB No. 5718, AR Bank #285, OXA-24, OXA-65): 64 µg/mL (≈ 109 µM)
- MIC ([2]; Acinetobacter baumannii, KUB No. 5719, AR Bank #286): > 64 µg/mL
- MIC ([2]; Acinetobacter baumannii, KUB No. 5720, AR Bank #287): 64 µg/mL (≈ 109 µM)
- MIC ([2]; Acinetobacter baumannii, KUB No. 5721, AR Bank #288): > 64 µg/mL
- MIC ([2]; Acinetobacter baumannii, KUB No. 5722, AR Bank #259): 32 µg/mL (≈ 54.6 µM)
- MIC ([2]; Acinetobacter baumannii, KUB No. 5723, AR Bank #290): > 64 µg/mL
- MIC ([2]; Acinetobacter baumannii, KUB No. 5724, AR Bank #291): > 64 µg/mL
- MIC ([2]; Acinetobacter baumannii, KUB No. 5725, AR Bank #292): 32 µg/mL (≈ 54.6 µM)
- MIC ([2]; Acinetobacter baumannii, KUB No. 5726, AR Bank #293): 16 µg/mL (≈ 27.3 µM)
- MIC ([2]; Acinetobacter baumannii, KUB No. 5727, AR Bank #294): 64 µg/mL (≈ 109 µM)
- MIC ([2]; Acinetobacter baumannii, KUB No. 5728, AR Bank #295): 2 µg/mL (≈ 3.42 µM)
- MIC ([2]; Acinetobacter baumannii, KUB No. 5729, AR Bank #296): > 64 µg/mL
- MIC ([2]; Acinetobacter baumannii, KUB No. 5730, AR Bank #297): 32 µg/mL (≈ 54.6 µM)
- MIC ([2]; Acinetobacter baumannii, KUB No. 5731, AR Bank #298): > 64 µg/mL
- MIC ([2]; Acinetobacter baumannii, KUB No. 5732, AR Bank #299): > 64 µg/mL
- MIC ([2]; Acinetobacter baumannii, KUB No. 5733, AR Bank #300): > 64 µg/mL
- MIC ([2]; Acinetobacter baumannii, KUB No. 5734, AR Bank #301): 64 µg/mL (≈ 109 µM)
- MIC ([2]; Acinetobacter baumannii, KUB No. 5735, AR Bank #302): > 64 µg/mL
- MIC ([2]; Acinetobacter baumannii, KUB No. 5736, AR Bank #303): > 64 µg/mL
- MIC ([2]; Acinetobacter baumannii, KUB No. 5737, AR Bank #304): 32 µg/mL (≈ 54.6 µM)
- MIC ([2]; Acinetobacter baumannii, KUB No. 5738, AR Bank #305): 32 µg/mL (≈ 54.6 µM)
- MIC ([2]; Acinetobacter baumannii, KUB No. 5739, AR Bank #306): 64 µg/mL (≈ 109 µM)
- MIC ([2]; Acinetobacter baumannii, KUB No. 5740, AR Bank #307): > 64 µg/mL
- MIC ([2]; Acinetobacter baumannii, KUB No. 5741, AR Bank #308): > 64 µg/mL
- MIC ([2]; Acinetobacter baumannii, KUB No. 5742, AR Bank #309): > 64 µg/mL
- MIC ([2]; Acinetobacter baumannii, KUB No. 5743, AR Bank #310): > 64 µg/mL
- MIC ([2]; Acinetobacter baumannii, KUB No. 5744, AR Bank #311): > 64 µg/mL
- MIC ([2]; Acinetobacter baumannii, KUB No. 5745, AR Bank #312): 1 µg/mL (≈ 1.71 µM)
- MIC ([2]; Acinetobacter baumannii, KUB No. 5746, AR Bank #313): 2 µg/mL (≈ 3.42 µM)
- MIC50 ([2]; Acinetobacter baumannii, 55 isolates of A. baumannii, read-out: MIC50): 64 µg/mL (≈ 109 µM)
- MIC80 ([2]; Acinetobacter baumannii, 55 isolates of A. baumannii, read-out: MIC80): > 64 µg/mL
- MIC90 ([2]; Acinetobacter baumannii, 55 isolates of A. baumannii, read-out: MIC90): > 64 µg/mL
- Number of isolates at MIC 2 µg/mL [2, 4]: 2
- Number of isolates at MIC 32 µg/mL [2, 4]: 1
- Number of isolates at MIC >64 µg/mL [2, 4]: 1
- MIC50 ([3]; read-out: MIC50): 2 µg/mL (≈ 3.42 µM)
- MIC80 ([3]; read-out: MIC80): 32 µg/mL (≈ 54.6 µM)
- MIC90 ([3]; read-out: MIC90): > 64 µg/mL
